Source: US20050187253A1, “Medicinal kit to quit tobacco consumption comprising central cannabinoid receptor antagonist” (Sanofi-Aventis, priority 2000, published 2005)

Legend:
[1] = system: rats which have learnt to self-administer nicotine intravenously; assay: self-administration of nicotine in rats (model predicting effects on nicotine dependence); assay type: in vivo; details: intravenous nicotine self-administration
Excerpt: The effects of compound A were studied in rats on a model which predicts the effects on nicotine dependence: the self-administration of nicotine according to W.T. Corrigal and al. Psychopharmacology, 1989, 99, 473-478.

[2] = system: individuals who smoked more than 15 cigarettes a day and who showed symptoms of nicotine dependence; assay: double-blind placebo-controlled study of withdrawal from tobacco in smokers; assay type: in vivo, human; details: 40 mg per day for 10 weeks, including 2 weeks before start of withdrawal; in particular during the last 4 weeks of treatment; confirmed by exhaled carbon monoxide and plasma cotinine
Description: The patients received 40 mg of compound A per day for 10 weeks, including 2 weeks before the start of the period of withdrawal from tobacco. […] The withdrawal from tobacco was confirmed by weekly measurement of the levels of carbon monoxide exhaled and of cotinine in the plasma.

Cc1c(C(=O)NN2CCCCC2)nn(-c2ccc(Cl)cc2Cl)c1-c1ccc(Cl)cc1 [compound A, N-piperidino-5-(4-chloro-phenyl)-1-(2,4-dichlorophenyl)-4-methylpyrazole-3-carboxamide]
number of nicotine injections ([1]; compound A at a dose of 0.3 mg/kg): reduces, in a statistically significant manner | number of nicotine injections ([1]; compound A at a dose of 1 mg/kg): reduces, in a statistically significant manner | level of withdrawal from tobacco versus placebo group [2]: greater level of withdrawal
